Laboratory results from US20250114336A1, “USE OF ANTI-RETROVIRAL PROTEASE INHIBITORS FOR THE TREATMENT OF AMYOTROPHIC LATERAL SCLEROSIS (ALS)” (The Regents of the University of Colorado, a body corporate, priority 2023, published 2025).
Entries after “also recorded” stand apart in the source; their conditions may differ.

Molecular target: T1, human PEG10 (Homo sapiens, UniProt Q86TG7)
T1 construct: expressed in transfected cells; host or cells: HEK293
T1 sequence (Q86TG7 1-708): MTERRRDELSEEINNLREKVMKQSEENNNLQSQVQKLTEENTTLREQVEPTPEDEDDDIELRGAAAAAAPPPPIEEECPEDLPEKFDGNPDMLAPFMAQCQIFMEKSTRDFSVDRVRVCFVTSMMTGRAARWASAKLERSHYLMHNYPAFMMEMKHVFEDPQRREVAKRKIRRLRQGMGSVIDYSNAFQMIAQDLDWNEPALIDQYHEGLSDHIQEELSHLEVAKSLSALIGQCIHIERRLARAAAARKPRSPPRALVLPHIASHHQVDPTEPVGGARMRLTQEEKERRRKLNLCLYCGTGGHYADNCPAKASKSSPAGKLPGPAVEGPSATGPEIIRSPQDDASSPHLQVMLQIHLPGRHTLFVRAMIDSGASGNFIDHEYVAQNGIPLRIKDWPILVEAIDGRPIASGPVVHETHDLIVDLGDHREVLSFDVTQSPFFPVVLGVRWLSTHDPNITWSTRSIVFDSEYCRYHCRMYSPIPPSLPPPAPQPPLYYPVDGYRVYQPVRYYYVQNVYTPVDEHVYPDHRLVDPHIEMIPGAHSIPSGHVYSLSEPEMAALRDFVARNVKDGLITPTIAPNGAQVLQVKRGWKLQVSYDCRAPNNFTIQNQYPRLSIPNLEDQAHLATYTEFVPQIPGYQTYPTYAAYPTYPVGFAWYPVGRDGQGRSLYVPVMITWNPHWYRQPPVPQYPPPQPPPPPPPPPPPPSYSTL
Test: Western blot of PEG10 abundance and self-cleavage in HEK293 cells transfected with human PEG10
Assay type: cell-based
Settings: HEK293 cells transfected with WT human PEG10, incubated 24 hours with increasing concentrations of drug (up to 50 uM), compared to untreated
Procedure: FIG. 1: Western blot of PEG10 self-cleavage testing with antiretroviral compounds. HEK293 cells were transfected with either WT or a cleavage-incompetent mutant form of human PEG10 and incubated for 24 hours with the indicated concentrations of drug. After 24 hours, cells were lysed and imaged by western blot.
FIG. 2A-D: PEG10 abundance is decreased by ritonavir, but not indinavir. a-d) Bands identified in FIG. 1 were quantified and normalized to Tubulin for a) gag-pol, b) gag, c) CA fragment, and d) CA^NTD fragment. Shown is mean+/−SEM for four representative experiments; one sample from untreated indinavir and 50 uM of indinavir and ritonavir were not collected. Statistics were measured by One-way ANOVA with multiple comparisons to untreated; statistically significant comparisons are shown with asterisks. ANOVA summary significance is shown with straight line.
Shown is mean+/−SEM for four representative experiments; one sample from untreated indinavir and 50 uM of indinavir and ritonavir were not collected. Statistics were measured by One-way ANOVA with multiple comparisons to untreated; statistically significant comparisons are shown with asterisks. ANOVA summary significance is shown with straight line.
Applicants performed an assay using western blot to assess self-cleavage of transfected PEG10 (FIG. 1) with a negative control where the PEG10 protease is mutated. […]

CC(C)c1nc(CN(C)C(=O)N[C@H](C(=O)N[C@@H](Cc2ccccc2)C[C@H](O)[C@H](Cc2ccccc2)NC(=O)OCc2cncs2)C(C)C)cs1 [ritonavir]
PEG10 abundance (expression in the cell; bands normalized to Tubulin: gag-pol, gag, CA fragment, CA NTD fragment): decreased; also recorded: uniquely decreases PEG10 expression | Self-cleavage of PEG10 (ratios gag-pol to gag, CA fragment to gag, CA NTD fragment to gag): modestly affected; also recorded: modest effect
